Results: paper PMC3914206

Tests used:
Type in all cases: binding
Conditions in all cases: Compound Concentration 10 µM
panel of 442 kinases [1] = biological target: T1, panel of 442 kinases (Homo sapiens, UniProt P31152)
T1 construct: purchased KINOMEscan
Text: (§1) We assessed the selectivity of members of this scaffold using the KINOMEscan methodology across a near comprehensive panel of 442 kinases [[18,27]].

panel of 442 kinases [2] = biological target: T2, panel of 442 kinases (Homo sapiens, UniProt Q02779)
T2 construct: purchased KINOMEscan
T2 sequence (Q02779 whole entry): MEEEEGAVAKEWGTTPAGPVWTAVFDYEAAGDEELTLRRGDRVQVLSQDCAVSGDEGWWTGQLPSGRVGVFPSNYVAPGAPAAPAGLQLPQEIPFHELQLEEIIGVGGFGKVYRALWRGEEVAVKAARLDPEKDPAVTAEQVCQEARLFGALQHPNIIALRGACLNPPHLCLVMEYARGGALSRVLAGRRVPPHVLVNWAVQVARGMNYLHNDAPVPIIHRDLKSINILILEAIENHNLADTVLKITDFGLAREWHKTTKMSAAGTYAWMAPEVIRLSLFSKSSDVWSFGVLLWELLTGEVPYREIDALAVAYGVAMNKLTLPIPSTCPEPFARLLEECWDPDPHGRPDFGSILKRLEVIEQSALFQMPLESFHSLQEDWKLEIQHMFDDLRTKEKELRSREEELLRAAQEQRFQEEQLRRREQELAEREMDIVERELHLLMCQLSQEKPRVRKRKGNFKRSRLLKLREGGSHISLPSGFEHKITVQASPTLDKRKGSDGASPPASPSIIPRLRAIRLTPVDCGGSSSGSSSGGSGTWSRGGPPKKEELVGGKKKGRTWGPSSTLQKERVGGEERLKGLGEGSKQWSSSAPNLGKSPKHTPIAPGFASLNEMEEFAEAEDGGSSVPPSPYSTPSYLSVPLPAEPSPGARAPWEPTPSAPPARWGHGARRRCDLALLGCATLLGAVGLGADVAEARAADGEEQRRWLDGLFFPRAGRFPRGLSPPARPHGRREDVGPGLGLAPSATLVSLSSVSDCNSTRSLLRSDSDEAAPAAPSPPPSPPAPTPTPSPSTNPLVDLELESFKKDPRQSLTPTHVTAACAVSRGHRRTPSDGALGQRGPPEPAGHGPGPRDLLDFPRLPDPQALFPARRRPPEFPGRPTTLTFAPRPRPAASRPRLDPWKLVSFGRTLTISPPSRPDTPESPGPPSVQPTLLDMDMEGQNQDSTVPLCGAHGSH
Text: as §1

panel of 442 kinases [3] = biological target: T3, panel of 442 kinases (Homo sapiens, UniProt Q32MK0)
T3 construct: purchased KINOMEscan
T3 sequence (Q32MK0 1-819): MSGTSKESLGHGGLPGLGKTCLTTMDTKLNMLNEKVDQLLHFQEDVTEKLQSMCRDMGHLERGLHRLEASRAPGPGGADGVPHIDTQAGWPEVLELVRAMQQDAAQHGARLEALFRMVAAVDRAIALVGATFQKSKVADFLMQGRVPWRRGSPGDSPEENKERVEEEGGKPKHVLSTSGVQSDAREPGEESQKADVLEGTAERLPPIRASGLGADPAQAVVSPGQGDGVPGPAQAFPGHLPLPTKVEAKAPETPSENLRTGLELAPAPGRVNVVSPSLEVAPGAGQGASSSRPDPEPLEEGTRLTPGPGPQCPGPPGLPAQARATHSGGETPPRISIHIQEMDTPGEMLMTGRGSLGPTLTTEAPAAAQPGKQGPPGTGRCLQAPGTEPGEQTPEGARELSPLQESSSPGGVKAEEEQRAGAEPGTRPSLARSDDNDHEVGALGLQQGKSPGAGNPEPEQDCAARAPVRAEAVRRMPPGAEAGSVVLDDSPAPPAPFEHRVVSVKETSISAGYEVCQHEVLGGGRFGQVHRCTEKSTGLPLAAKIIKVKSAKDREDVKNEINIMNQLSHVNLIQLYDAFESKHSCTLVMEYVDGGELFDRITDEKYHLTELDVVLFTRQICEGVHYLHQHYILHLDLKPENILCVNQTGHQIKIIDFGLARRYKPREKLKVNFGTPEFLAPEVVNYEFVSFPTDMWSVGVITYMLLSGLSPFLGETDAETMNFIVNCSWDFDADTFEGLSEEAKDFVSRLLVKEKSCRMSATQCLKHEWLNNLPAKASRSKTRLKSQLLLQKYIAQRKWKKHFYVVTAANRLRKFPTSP
Text: as §1

T1 sequence (P31152 whole entry): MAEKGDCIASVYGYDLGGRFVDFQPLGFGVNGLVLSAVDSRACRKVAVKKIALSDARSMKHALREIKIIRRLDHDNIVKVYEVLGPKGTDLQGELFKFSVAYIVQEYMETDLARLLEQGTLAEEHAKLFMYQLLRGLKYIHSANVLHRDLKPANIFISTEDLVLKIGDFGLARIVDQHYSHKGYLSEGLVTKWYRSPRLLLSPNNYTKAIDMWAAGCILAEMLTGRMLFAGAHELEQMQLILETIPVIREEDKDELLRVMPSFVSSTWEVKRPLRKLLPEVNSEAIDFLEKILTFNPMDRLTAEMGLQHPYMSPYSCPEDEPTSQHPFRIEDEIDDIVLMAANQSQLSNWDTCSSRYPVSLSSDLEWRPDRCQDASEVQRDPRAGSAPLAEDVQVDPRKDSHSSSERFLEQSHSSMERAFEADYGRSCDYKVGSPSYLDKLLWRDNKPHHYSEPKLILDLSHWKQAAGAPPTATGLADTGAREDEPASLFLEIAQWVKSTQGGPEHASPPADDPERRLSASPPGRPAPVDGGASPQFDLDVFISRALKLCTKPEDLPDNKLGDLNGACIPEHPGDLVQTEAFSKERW

Row | Compound | KINOMEscan: ERK4 (panel of 442 kinases [1]) | KINOMEscan: MLK2 (panel of 442 kinases [2]) | KINOMEscan: MLCK (panel of 442 kinases [3])
1 | COc1cc(C(=O)N2CCC(N3CCN(C)CC3)CC2)ccc1Nc1ncc2c(n1)N(C)c1ccccc1C(=O)N2C [15 (LRRK2-IN-1)] | 100 | 100 | 100
2 | COc1cc(C(=O)N2CCC(N3CCN(C)CC3)CC2)ccc1Nc1ncc2c(n1)N1CCc3cccc(c31)C(=O)N2C [Compound 24] |  | 98 | 
3 | COc1cc(C(=O)N2CCC(N3CCN(C)CC3)CC2)ccc1Nc1ncc2c(n1)N(C1CCCC1)c1ccccc1C(=O)N2C [Compound 25, 11-cyclopentyl-2-((2-methoxy-4-(4-(4-methylpiperazin-1-yl)piperidine-1-carbonyl)phenyl)amino)-5-methyl-5H-benzo[e]pyrimido[5,4-b][1,4]diazepin-6(11H)-one] | 100 | 96 | 100
4 | CCOc1cc(C(=O)N2CCC(N3CCN(C)CC3)CC2)ccc1Nc1ncc2c(n1)N(C1CCCC1)c1ccccc1C(=O)N2C [Compound 26] | 100 | 100 | 100
